# Experiments:
# [1] = Test-tube determination of anionic character: dye mixed with organoclay, clean clay or quat in water, centrifuged, judged visually; assay type: physicochemical; conditions: for Ionic character of the dye concluded from the test tubes: conclusion from Table 1 observations
# Procedure: Thus, the molecule or ion can be tested in order to determine whether it has an anionic character (and thus can undergo the present method) or a cationic character or a neutral character. In testing certain molecules or ions, the procedure described below was employed.
# Using Jarocol Straw Yellow dye as a representative example, four 1 mg samples of the dye were weighed and placed in 4 test tubes.
# Subsequently, 10 mL of water was added to each of the four test tubes, and all of the samples were mixed well for 30 seconds. The samples from each of the test tubes were then centrifuged for 15 minutes in a laboratory scale centrifuge.
# The analysis herein was performed visually, since the six samples tested were dyes. […] For example, for a non-dye sample, the clay may be separated from the water, both parts may be taken to dryness, and the IR spectrum of each may be recorded.
# [2] = Equivalence point of anionic dye added to organoclay (water phase begins to turn a weak color); assay type: physicochemical
# Description: The objective of the present Example was not only to determine the equivalence points at a fixed clay:quat ratio for the four anionic dyes listed above, but also to determine the effects that varying the clay:quat ratio had on the dye equivalence. The equivalence point for each anionic dye was recognized as the moment when the water phase of the anionic dye/organoclay composition began to turn a weak color. In other words, the equivalence point for each dye indicated the point at which the anionic dye would bleed or fail to be dispersible when the dye/organoclay composition is placed in an aqueous environment. This equivalence point, then, also indicates the point at which the weak bonding sites on the clay have been satisfied.
# Determination of the equivalence point for the four anionic dyes began with the preparation of the organoclay and the subsequent addition of the dye to form the anionic dye/organoclay compositions. The organoclay, having a clay:quat ratio of 1.0:0.77, was prepared by first heating 150 grams of clay slurry (wherein the clay slurry comprises 3.24 grams of bentonite clay and thus comprises 2.16% solids) on a hot plate to approximately 65° C. Simultaneously, 2.495 grams of quat were dissolved in hot water. The quat used in this Example was Adogen 442, and the solution contained a quat:water ratio of 1:20. The quat solution was placed on the same hot plate and heated to 65° C., while being stirred to aid in the dissolution of the quat.
# The bentonite clay slurry was added to a Waring blender and was allowed to mix under high speed agitation (speed 6) for about 1 minute. The quat solution was then added slowly to the clay slurry and was allowed to react for approximately 25-30 minutes. After this time, the blender was stopped for a few seconds to ensure adequate floccing.
# The process described above was repeated using several different clay:quat ratios including 1:0.5 and 1:0.6 (less quat than the experiment described above) and 1:0.9 (an excess of quat with respect to the experiment described above).
# [3] = Clay:Quat Ratio of 1:0.77, 3.24 g bentonite clay, quat Adogen 442
Molecule,Ionic character of the dye concluded from the test tubes [1],"Equivalence Point [2, 3] [grams]",other results
O=C(O)c1nn(-c2ccc(S(=O)(=O)O)cc2)c(O)c1N=Nc1ccc(S(=O)(=O)O)cc1 [FD&C Yellow No. 5],anionic in nature,–,–
FD&C Blue No. 1,anionic in nature,0.3750,–
"CN(C)c1ccc2nc3ccc(=[N+](C)C)cc-3sc2c1 [Methylene Blue, reference compound]",cationic in nature,–,–
D&C Green No. 5,–,0.4853,–
Cc1ccc(N=Nc2c([O-])c(C(=O)O)cc3ccccc23)c(S(=O)(=O)[O-])c1.[Na+].[Na+] [Lithol Rubine B],requisite anionic character,0.4103,"Test Tube 3 (10 mg Quat) visual observation ([1]; 1 mg sample + 10 mg quat, 10 mL water, mixed 30 seconds, centrifuged 15 minutes): the quat layer was dark red and the water layer was clear; Test Tube 4 (Control, sample only) visual observation ([1]; 1 mg sample only, 10 mL water, mixed 30 seconds, centrifuged 15 minutes): Water was red; Equivalence Point ([2]; Clay:Quat Ratio of 1:0.5): 0.0693 grams; Equivalence Point ([2]; Clay:Quat Ratio of 1:0.6): 0.1471 grams; Color change of dye on incorporation into organoclay ([2]; clay:quat ratios of 1:0.77, 1:0.6 and 1:0.5): color change took place"

# From patent US20040058168A1, “Method for incorporating anionic molecules into a substrate for increasing dispersibility of anionic molecules” (priority 2002, published 2004)
